This is an account of results in ChEMBL document CHEMBL1133201, “Synthesis and cytotoxic activity of acetogenin analogues” (Bioorg Med Chem Lett, 2000).

The test system of the test is L1210. The test is described as follows: In vitro inhibitory activity was tested against L1210 leukemia cells. In kind it is functional, cell-based. Conditions: Mus musculus.

As for `COc1ccc([C@H](O)COCCOC[C@H](O)C#CCCCCCCC[C@@H]2CC(CC(C)=O)C(=O)O2)cc1` (some centres undefined), the IC50 (usually the concentration needed to halve the response being measured) is over 10000 nM.

`CCCCCCCCCC[C@H](O)COCCOC[C@H](O)C#CCCCCCCC[C@@H]1CC(CC(C)=O)C(=O)O1` (some centres undefined) gave an IC50 of 3500 nM. That is a single-digit micromolar value.

As for `CCCCN(CCCC)[C@@H](O)COCCOC[C@@H](O)C#CCCCCCCC[C@@H]1CC(CC(C)=O)C(=O)O1` (some centres undefined), the IC50 was found to be 2500 nM.

`CC(=O)CC1C[C@@H](CCCCCCCC#C[C@@H](O)COCCOC[C@@H](O)c2ccc(C(F)(F)F)cc2)OC1=O` (some centres undefined) had an IC50 of 3300 nM.

In turn, `CC(=O)CC1C[C@@H](CCCCCCCC#C[C@@H](O)COCCOC[C@@H](O)c2ccccc2)OC1=O` (some centres undefined) showed an IC50 of 19800 nM.

Molecule `CC(=O)CC1C[C@@H](CCCCCCCC#C[C@@H](O)COCCOC[C@@H](O)OC2CC[C@]3(C)C(=CC[C@@H]4[C@H]5CC[C@@H]([C@@H](C)CCCC(C)C)[C@]5(C)CC[C@H]43)C2)OC1=O` (some centres undefined) returned an IC50 of 2800 nM.

As to `CC(=O)CC1C[C@@H](CCCCCCCC#C[C@H](O)COCCOC[C@H](O)c2ccc3ccccc3c2)OC1=O` (some centres undefined), the IC50 came to 3000 nM.

As for `COc1ccc([C@@H](O)COCCOC[C@@H](O)C#CCCCCCCC[C@@H]2CC(CC(C)=O)C(=O)O2)cc1` (some centres undefined), inhibition was half-maximal at 32000 nM (IC50).

In turn, `CC(=O)CC1C[C@@H](CCCCCCCC#C[C@@H](O)COCCOC[C@@H](O)N2CCCCC2)OC1=O` (some centres undefined) had an IC50 of 28700 nM.

`CCCCCCCCCC[C@@H](O)COCCOC[C@@H](O)C#CCCCCCCC[C@@H]1CC(CC(C)=O)C(=O)O1` (some centres undefined): the midpoint of inhibition, the IC50, lay at 1000 nM.

`CC(=O)CC1C[C@@H](CCCCCCCC#C[C@H](O)COCCOC[C@H](O)c2ccccc2)OC1=O` (some centres undefined) showed an IC50 of 21600 nM.

Consider `CCCCCCCCCCCC[C@@H](O)[C@H]1CC[C@H]([C@H](O)CCCC[C@H](O)CCCCC[C@@H](O)CC2=CC(C)OC2=O)O1` (some centres undefined) [ANNONACIN], for which the IC50 was 42 nM.

`CCCCCCCCCC[C@H](O)[C@H]1CC[C@H]([C@H]2CC[C@H]([C@H](O)CCCCCCCCCC[C@@H]3CC(CC(C)=O)C(=O)O3)O2)O1` (some centres undefined) [BULLATACINONE] had an IC50 of 16 nM. This IC50 lies about 2.6-fold lower than the previous one.

For the molecule `CCCCCCCCCC[C@@H](O)[C@@H]1CC[C@@H]([C@@H]2CC[C@@H]([C@H](O)CCCCCCCCCC(O)CC3=CC(C)OC3=O)O2)O1` (some centres undefined) [BULLATACIN], the IC50 was 0.4 nM.
